As usually defined, the EC90 is the concentration needed for an effect of 90%.

In patent publication US20030207813A1, “Retroviral protease inhibitor combinations” (priority 1995, published 2003) one finds EC50 and EC90 data, which are given here for 5 compounds.

The subject of one assay is HIV-1RF. Nature of the assay: CEM-T4 cell infection assay, reverse transcriptase readout, isolate RF. Conditions: Human immunodeficiency virus 1, CEM-T4, 168 h, 7 days, read-out: Virus Isolate (EC50 ng/mL) RF. Format: cell-based. The source says:
(§1) RF represents the HIV-1 strain HIV-LRF and RFR represents a mixture of resistant strains obtained by selection of RF against the compound of Example 1. RFR comprises a mixture of viral strains having protease genotypes of G48V (14/40 clones); G48V, V82A (18/40 clones); G48V, L90S (2/40 clones); G48V, 154T, V82A (1/40 clones); G48M (1/40 clones); G48V, Q61H (1/40 clones); V13I, G48V (1/40 clones); G48V, F53L, V82A (1/40 clones); and G48V, V82A, C95Y (1/40 clones). RFR2 represents a mixture of resistant strains obtained by cloning RFR by three rounds of growth at limiting dilution. RFR2 comprises a mixture of viral strains having protease genotypes of G48V, V82A (13/15 clones); G17E, G48V, V82A (1/15 clones); and G48V, V82A, N37D, N88D (1/15 clones). RFRR represents a mixture of resistant strains obtained by selection of RF against the compounds of Examples 1 and 2 and then cloning by three rounds of growth at limiting dilution. RFRR comprises a mixture of viral strains having protease genotypes of G48V, 154T, L63P, V82A (7/9 clones); G48V, 154T, L63P, V82A, N88S (1/9 clones); and G48V, 154T, L63P, G73M, V82A (1/9 clones). SF162 represents the HIV-1 strain SF-162 and SF162R represents a mixture of resistant strains obtained by selection of SF162 against the compound of Example 1. SF162R comprises a mixture of viral strains having protease genotypes of M461, F53L, L63P, A71V, N88D (2/3 clones); and M46I, F53L, L63P, A71V, N88D, Q92R (1/3 clones). 89-959 represents the HIV-1 strain 89-959 and 89-959R represents a mixture of resistant strains obtained by selection of 89-959 against the compound of Example 2. 89-959R comprises a mixture of viral strains having protease genotypes of N88S (4/5 clones); and D25N, T26A, D30N, D37N, R41K, G73D, R87K, N88S (1/4 clones). NL4 represents the HIV-1 strain HIV-1NL4-3. NL4(G48V) represents a strain having a synthetically generated site-directed mutation in the protease from glycine to valine at amino acid position number 48. NL4(I84V) represents a strain having a synthetically generated site-directed mutation in the protease from isoleucine to valine at amino acid position number 84. NL4(R8Q,M46I) represents a strain having synthetically generated site-directed mutations in the protease from arginine to glutamine at amino acid position number 8 and methionine to isoleucine at amino acid position number 46. NL4(P22-538) represents a mixture of resistant strains obtained by selection of HIV-1NL4-3 against the compound of Example 10 after 22 passages comprising protease genotypes M46I, L63P, A71V, V82F, I84V (4/10); M46I, L63P, V82F, I84V (3/10); and M46I, A71V, V82F, I84V (3/10). NL4(P37-538) represents resistant strains obtained by selection of HIV-1NL4-3 against the compound of Example 10 after 37 passages comprising protease genotype M46I, L63P, A71V, 184A. NL4(538/524) represents resistant strains obtained by selection of NL4(P22-538) against the compound of Example 5 after 24 passages comprising protease genotype M46I, L63P, A71V, 184A. NL4(538/P7-AG) represents a mixture of resistant strains obtained by selection of NL4(P22-538) against the compound of Example 12 after 7 passages comprising protease genotypes M46I, L63P, A71V, 184A; and V321, V82I. NL4(538/P24-AG) represents resistant strains obtained by selection of NL4(P22-538) against the compound of Example 12 after 24 passages comprising protease genotype M46I, L63P, A71V, 184A. NLA(P19-003) represents resistant strains obtained by selection of HIV-1^NL4-3 against the compound of Example 9 after 19 passages comprising protease genotype R8K, M46I. NL4(P34-003) represents resistant strains obtained by selection of HIV-1^NL4-3 against the compound of Example 9 after 34 passages comprising protease genotype R8K, M46I, L63P, A71V, L90M.
(§2) The viral isolate resistance results summarized in Tables 4-6 were generated according to the following assay procedure or minor modifications thereof. Assays are performed in 96-well tissue culture plates. […]

The subject of assay [1] is RFR2 (RFR cloned by three rounds of limiting dilution). Nature of the assay: CEM-T4 cell infection assay, reverse transcriptase readout, resistant isolate RFR2. Format: cell-based, HIV-1. The conditions noted are these: Human immunodeficiency virus 1, 168 h, Table 6, CEM-T4 cells, 7 days, read-out: Virus Isolate (EC50 ng/mL) RFR2.
From the text: as §1, §2

Assay [2] relates to RFRR (resistant strains selected from RF against Examples 1 and 2). In words: CEM-T4 cell infection assay, reverse transcriptase readout, resistant isolate RFRR. Type of assay: cell-based, HIV-1. Conditions: Human immunodeficiency virus 1, 168 h, Table 6, CEM-T4 cells, 7 days, read-out: Virus Isolate (EC50 ng/mL) RFRR.
From the text: as §1, §2

Another assay has as its system HIV-1NL4-3. In words: microbe, parasite or virus in culture. Type of assay: cell-based. The conditions noted are these: Human immunodeficiency virus 1, NL4; for EC90: Table 7, read-out: Virus Isolate (EC90 nM) NL4; for EC50: read-out: Virus Isolate (EC50 nM) NL4. The source says:
(§3) RF represents the HIV-1 strain HIV-LRF and RFR represents a mixture of resistant strains obtained by selection of RF against the compound of Example 1. […] RFR2 represents a mixture of resistant strains obtained by cloning RFR by three rounds of growth at limiting dilution. […] RFRR represents a mixture of resistant strains obtained by selection of RF against the compounds of Examples 1 and 2 and then cloning by three rounds of growth at limiting dilution. […] SF162 represents the HIV-1 strain SF-162 and SF162R represents a mixture of resistant strains obtained by selection of SF162 against the compound of Example 1. […] 89-959 represents the HIV-1 strain 89-959 and 89-959R represents a mixture of resistant strains obtained by selection of 89-959 against the compound of Example 2. […] NL4 represents the HIV-1 strain HIV-1NL4-3. NL4(G48V) represents a strain having a synthetically generated site-directed mutation in the protease from glycine to valine at amino acid position number 48. NL4(I84V) represents a strain having a synthetically generated site-directed mutation in the protease from isoleucine to valine at amino acid position number 84. NL4(R8Q,M46I) represents a strain having synthetically generated site-directed mutations in the protease from arginine to glutamine at amino acid position number 8 and methionine to isoleucine at amino acid position number 46.

The next assay deals with NL4(P37-538). Nature of the assay: Viral isolate resistance assay per Markowitz et al., NL4(P37-538). Format: cell-based, HIV-1.
From the text: as §1
The viral isolate resistance results summarized in Tables 7-11 were generated according to the assay procedures described by Markowitz et al., Journal of Virology, vol. […]

A further assay deals with NL4(538/524). Nature of the assay: Viral isolate resistance assay per Markowitz et al., NL4(538/524). Format: cell-based, HIV-1. Conditions: Human immunodeficiency virus 1; Table 10; NL4(P22-538) selected against Example 5, 24 passages.
From the text: as §1, with “NLA(P19-003) represents resistant strains obtained by selection of HIV-1^NL4-3 against the compound of Example 9 after 19 passages comprising protease genotype R8K, M46I. NL4(P34-003) represents resistant strains obtained by selection of HIV-1^NL4-3 against the compound of Example 9 after 34 passages comprising protease genotype R8K, M46I, L63P, A71V, L90M.” left out

For the next assay, the system named is NL4(538/P7-AG). Nature of the assay: Viral isolate resistance assay per Markowitz et al., NL4(538/P7-AG). The conditions noted are these: Human immunodeficiency virus 1; Table 10; NL4(P22-538) selected against Example 12, 7 passages. Type of assay: cell-based, HIV-1.
From the text: as §1, with “NLA(P19-003) represents resistant strains obtained by selection of HIV-1^NL4-3 against the compound of Example 9 after 19 passages comprising protease genotype R8K, M46I. NL4(P34-003) represents resistant strains obtained by selection of HIV-1^NL4-3 against the compound of Example 9 after 34 passages comprising protease genotype R8K, M46I, L63P, A71V, L90M.” left out

A further assay deals with NL4(538/P24-AG). Nature of the assay: Viral isolate resistance assay per Markowitz et al., NL4(538/P24-AG). Format: cell-based, HIV-1. Conditions: Human immunodeficiency virus 1; Table 10; NL4(P22-538) selected against Example 12, 24 passages.
From the text: as §1, with “NLA(P19-003) represents resistant strains obtained by selection of HIV-1^NL4-3 against the compound of Example 9 after 19 passages comprising protease genotype R8K, M46I. NL4(P34-003) represents resistant strains obtained by selection of HIV-1^NL4-3 against the compound of Example 9 after 34 passages comprising protease genotype R8K, M46I, L63P, A71V, L90M.” left out

The subject of assay [3] is RFR (resistant strains selected from RF against Example 1). Nature of the assay: CEM-T4 cell infection assay, reverse transcriptase readout, resistant isolate RFR. Type of assay: cell-based, HIV-1. The conditions noted are these: Human immunodeficiency virus 1, CEM-T4, 168 h, Table 4, CEM-T4 cells, 7 days, read-out: Virus Isolate (EC50 ng/mL) RFR.
From the text: as §1, §2

The test system of another assay is NL4(P22-538). Nature of the assay: Viral isolate resistance assay per Markowitz et al., NL4(P22-538). The conditions noted are these: Human immunodeficiency virus 1, read-out: Virus Isolate (EC50 nM) NL4(P22-538). Format: cell-based, HIV-1.
From the text: as §1, with “NLA(P19-003) represents resistant strains obtained by selection of HIV-1^NL4-3 against the compound of Example 9 after 19 passages comprising protease genotype R8K, M46I. NL4(P34-003) represents resistant strains obtained by selection of HIV-1^NL4-3 against the compound of Example 9 after 34 passages comprising protease genotype R8K, M46I, L63P, A71V, L90M.” left out

A further assay concerns NL4(I84V). Nature of the assay: Viral isolate resistance assay per Markowitz et al., NL4(I84V). The conditions noted are these: Human immunodeficiency virus 1, Table 7. Type of assay: cell-based, HIV-1.
From the text: as §3

Where [4] appears, read: Human immunodeficiency virus 1, read-out: Virus Isolate (EC50 nM) NL4(P37-538).

In brackets after ≈: the same amount, converted by molar mass. Like-named read-outs stand apart in the source and are kept apart here.

In the case of `CNCC(=O)N[C@H](C(=O)N[C@@H](Cc1ccccc1)[C@H](O)CN(CC(C)C)S(=O)(=O)c1ccc2c(c1)OCO2)C(C)(C)C` [Example 16, 2S-[[(N-methylamino)acetyl]amino]-N-[2R-hydroxy-3-[[(1,3-benzodioxol-5-yl)sulfonyl](2-methylpropyl)amino]-1S-(phenylmethyl)propyl]-3.3-dimethylbutanamide], the EC50 was 3 ng/mL (≈ 4.96 nM) in the assay on HIV-1RF (Table 6, CEM-T4 cells); 1 ng/mL (≈ 1.65 nM) in assay [1]; 9 ng/mL (≈ 14.9 nM) in assay [2]; 8 nM with HIV-1NL4-3 (Table 8); 40 nM with NL4(P37-538) (Human immunodeficiency virus 1, Table 9, selected against Example 10, 37 passages, read-out: Virus Isolate (EC50 nM) NL4(P37-538)); 40 nM with NL4(538/524). Besides, the EC50 with NL4(538/P7-AG) and in the assay with NL4(538/P24-AG) was 40 nM throughout. In addition, in the assay on HIV-1NL4-3, the EC90 came out at 8 nM.

Take `COc1ccc(S(=O)(=O)N(CC(C)C)C[C@@H](O)[C@H](Cc2ccccc2)NC(=O)[C@H](C)CS(C)(=O)=O)cc1` (relative stereo) [Example 4, [1S-[1R*(R*),2S*]]-N-[2-hydroxy-3-[N^1-(2-methylpropyl)-N-(4-methoxyphenylsulfonyl)amino]-1-(phenylmethyl)propyl]-2-methyl-3-(methylsulfonyl)propanamide]: the EC50 turned out to be 10 ng/mL (≈ 18 nM) with HIV-1RF (Table 4, CEM-T4 cells) and 0.4 ng/mL (≈ 0.721 nM) in [3].

In the case of `COc1ccc(S(=O)(=O)N(CC(C)C)C[C@@H](O)[C@H](Cc2ccccc2)NC(=O)OCc2cncnc2)cc1` [Example 3, [2R-hydroxy-3-[[(4-methoxyphenyl)sulfonyl](2-methylpropyl)amino]-1S-(phenylmethyl)propyl]carbamic acid 5-pyrimidylmethyl ester], the EC50 in the assay on HIV-1RF (Table 4, CEM-T4 cells) was found to be 5 ng/mL (≈ 9.21 nM); in assay [3], 2 ng/mL (≈ 3.69 nM).

As to `CC(C)CN(C[C@@H](O)[C@H](Cc1ccccc1)NC(=O)[C@H](C)CS(C)(=O)=O)S(=O)(=O)c1ccc2c(c1)OCO2` [Example 15, N-[2R-hydroxy-3-[(2-methylpropyl)[(1,3-benzodioxol-5-yl)sulfonyl]amino]-1S-(phenylmethyl)propyl]2S-methyl-3-(methylsulfonyl)propanamide], the EC50 with HIV-1RF (Table 6, CEM-T4 cells) is 5 ng/mL (≈ 8.79 nM); in assay [1], 9 ng/mL (≈ 15.8 nM); in [2] it was 21 ng/mL (≈ 36.9 nM); with HIV-1NL4-3 (Table 9), 8 nM; with NL4(P22-538) it was 400 nM; in the assay on NL4(P37-538) (setting [4]), 1000 nM. In addition, the EC90 with HIV-1NL4-3 turned out to be 60 nM.

With `CC(C)CN(C[C@@H](O)[C@H](Cc1ccccc1)NC(=O)[C@@H](NC(=O)CN1CCCC1)C(C)(C)C)S(=O)(=O)c1ccc2c(c1)OCO2` [Example 14, N-[2R-hydroxy-3-[[(1,3-benzodioxol-5-yl)sulfonyl](2-methylpropyl)amino]-1S-(phenylmethyl)propyl]-2S-[[(pyrrolidin-1-yl)acetyl]amino]-3,3-dimethylbutanamide], the EC50 in the assay with HIV-1RF (Table 6, CEM-T4 cells) was determined as 1 ng/mL (≈ 1.55 nM); in assay [1], 6 ng/mL (≈ 9.3 nM); in [2], 39 ng/mL (≈ 60.5 nM); in the assay on HIV-1NL4-3 (Table 9), 60 nM; with NL4(P37-538) (setting [4]) it was 1000 nM. Moreover, the EC90 in the assay on HIV-1NL4-3 came out at 8 nM; in the assay with NL4(I84V), 72 nM.
